Test results as given in ChEMBL document CHEMBL3853274, “Ibogan, Aspidosperman, Vincamine, and Bisindole Alkaloids from a Malayan Tabernaemontana corymbosa: Iboga Alkaloids with C-20α Substitution” (J Nat Prod, 2016).

What was measured:
Format in all cases: functional, cell-based
[1] = Cytotoxicity against vincristine-sensitive human KB cells after 72 hrs by MTT assay
[2] = Cytotoxicity against vincristine-resistant human KB/VJ300 cells after 72 hrs by MTT assay; settings: KB/VJ300, 72 h
[3] = Cytotoxicity against vincristine-resistant human KB/VJ300 cells in presence of 0.12 uM vincristine after 72 hrs by MTT assay; settings: KB/VJ300, 72 h

| Compound | IC50 [1] | IC50 [2] | IC50 [3] |
| --- | --- | --- | --- |
| C/C=C1/CN(C)[C@H]2Cc3c([nH]c4ccccc34)[C@@H](c3ccc4c5c([nH]c4c3)[C@@H]3C[C@H]4C[C@H]([C@@H](C)O)[C@@H]3N(CC5)C4)C[C@@H]1[C@@H]2C(=O)OC | 3300 nM | 2700 nM | 1300 nM |
| C/C=C1/CN(C)[C@H]2Cc3c([nH]c4ccccc34)[C@@H](c3ccc4c5c([nH]c4c3)[C@@H]3C[C@H]4C[C@H](CC)[C@@H]3N(CC5)C4)C[C@@H]1[C@@H]2C(=O)OC | 1200 nM | 1400 nM | 900 nM |
| C/C=C1/CN(C)[C@H]2Cc3c([nH]c4ccccc34)[C@@H](c3ccc4c5c([nH]c4c3)[C@@H]3C[C@H]4C[C@H]([C@H](C)O)[C@@H]3N(CC5)C4)C[C@@H]1[C@@H]2C(=O)OC | 4600 nM | 4100 nM | 1800 nM |
